Assay results as given in ChEMBL document CHEMBL1123971, “Synthesis, platelet aggregation inhibitory activity, and in vivo antithrombotic activity of new 1,4-dihydropyridines” (J Med Chem, 1988).
“And” between values parts separate entries of the source, which are not always exact repeats. Equal values may be shown once.

How the values were obtained:
Felis catus [1] = experiment: Effect of intravenous infusion on diastolic pressure in Anesthetized cats at a dose of 0 mg/kg at 0 min; assay type: functional
Felis catus [2] = experiment: Effect of intraperitoneal infusion on respiration frequency in Anesthetized cats at a dose of 200 mg/kg at 45 min; assay type: functional
Felis catus [3] = experiment: Effect of intraperitoneal infusion of compound on cardiac frequency in Anesthetized cats at a dose of 200 mg/kg at 90 min; assay type: functional, Heart
Felis catus [4] = experiment: Effect of intraperitoneal infusion of compound on cardiac frequency in Anesthetized cats at a dose of 200 mg/kg at 0 min; assay type: functional, Heart
Felis catus [5] = experiment: Effect of intravenous infusion on cardiac frequency in Anesthetized cats at a dose of 0.00 mg/kg at 0 min; assay type: functional, Heart
Felis catus [6] = experiment: Effect of intraperitoneal infusion on diastolic pressure in Anesthetized cats at a dose of 200 mg/kg at 105 min; assay type: functional
Mus musculus = organism: Mus musculus; experiment: Dose required to protect 50% of tested mice against experimental antithrombosis.; assay type: functional
Felis catus [7] = experiment: Effect of intravenous infusion on respiration frequency in Anesthetized cats at a dose of 0 mg/kg at 0 min; assay type: functional

In the case of `CCO/C(O)=C1\C(C)=NC(C)=C(C(=O)OCCN2C(=O)c3ccccc3S2(=O)=O)C1C` (stereo not drawn), the Arterial pressure (Felis catus [1]) is reported as 115 mmHg, the Respiratory frequency (Felis catus [2]) is reported as 14 r.p.m and the Cardiac frequency (Felis catus [3]) is reported as 256 beats min-1. For the same compound, the Cardiac frequency (Felis catus [4]) was 260 beats min-1, the Cardiac frequency (Felis catus [5]) was 190 beats min-1 and the Arterial pressure (Felis catus [6]) was 87 mmHg. For the same compound, the ED50 (Mus musculus) was 2.23 µmol/kg and 1 mg/kg and the Respiratory frequency (Felis catus [7]) was 18 r.p.m.
